The IC50 is the concentration needed to halve the response being measured. A lower IC50 goes with inhibition by little substance. For orientation: inhibition means the share of the control response that was lost under treatment. A low value points to little suppression.

Some results are limits rather than exact numbers.

The target in one assay is Acetylcholinesterase (Electrophorus electricus, UniProt O42275). The assay can be described thus: Inhibition of electric eel AChE by Ellman's method.
Chain of Acetylcholinesterase (O42275 whole entry): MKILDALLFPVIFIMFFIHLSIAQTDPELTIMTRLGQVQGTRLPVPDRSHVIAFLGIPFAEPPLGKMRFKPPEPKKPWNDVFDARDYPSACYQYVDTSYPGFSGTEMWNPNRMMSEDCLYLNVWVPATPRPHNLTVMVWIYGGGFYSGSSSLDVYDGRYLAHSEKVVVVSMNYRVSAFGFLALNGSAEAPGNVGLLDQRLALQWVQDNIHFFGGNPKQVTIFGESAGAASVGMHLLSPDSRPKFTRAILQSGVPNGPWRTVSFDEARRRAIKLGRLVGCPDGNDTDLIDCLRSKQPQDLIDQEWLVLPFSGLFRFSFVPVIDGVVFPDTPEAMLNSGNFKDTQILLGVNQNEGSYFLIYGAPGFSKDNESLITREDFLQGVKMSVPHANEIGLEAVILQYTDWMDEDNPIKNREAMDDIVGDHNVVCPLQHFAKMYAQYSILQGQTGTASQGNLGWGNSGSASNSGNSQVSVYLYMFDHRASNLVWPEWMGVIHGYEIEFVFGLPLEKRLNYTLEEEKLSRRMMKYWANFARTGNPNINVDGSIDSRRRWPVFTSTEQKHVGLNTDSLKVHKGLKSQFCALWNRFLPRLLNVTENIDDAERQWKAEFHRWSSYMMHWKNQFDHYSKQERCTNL
A short description of assay [1]: Selectivity index, ratio of IC50 for electric eel AChE to IC50 for BChE.
Assay [2] has as its target Cholinesterase (Homo sapiens) (UniProt P06276). Nature of the assay: Inhibition of BChE by Ellman's method. As to conditions: concentration not given here.

Chain of Cholinesterase (Homo sapiens) (P06276 whole entry): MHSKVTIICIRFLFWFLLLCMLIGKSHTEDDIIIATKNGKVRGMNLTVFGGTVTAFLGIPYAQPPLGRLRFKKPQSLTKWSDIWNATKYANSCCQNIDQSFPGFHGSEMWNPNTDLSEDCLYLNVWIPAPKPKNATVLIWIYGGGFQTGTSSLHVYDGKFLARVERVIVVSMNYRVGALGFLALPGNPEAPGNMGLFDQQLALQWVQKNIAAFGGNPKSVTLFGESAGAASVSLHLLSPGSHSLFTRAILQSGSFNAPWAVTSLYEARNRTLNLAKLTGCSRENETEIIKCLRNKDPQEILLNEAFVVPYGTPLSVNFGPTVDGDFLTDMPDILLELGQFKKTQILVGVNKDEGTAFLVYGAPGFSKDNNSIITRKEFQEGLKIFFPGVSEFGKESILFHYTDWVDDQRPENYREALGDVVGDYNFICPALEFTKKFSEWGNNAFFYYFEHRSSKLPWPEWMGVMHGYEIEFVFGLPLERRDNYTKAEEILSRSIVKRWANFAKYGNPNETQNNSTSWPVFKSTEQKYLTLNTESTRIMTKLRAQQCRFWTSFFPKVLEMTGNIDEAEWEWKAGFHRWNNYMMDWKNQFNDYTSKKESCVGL

Take `O=C(CN1CCCCC1)Nc1ccc(NC(=O)CN2CCCCC2)c(Cl)c1`: 1000 nM corresponded to half-maximal inhibition at Acetylcholinesterase (IC50). In other words, the single-digit micromolar range. On the same count and under the same terms, under `Cc1cc(N2CCCC2)nc2ccc(NC(=O)CCC(=O)NC3CCCCC3)cc12` stands 1000 nM. Regarding `O=C(C1CCN(c2nnc(N3CCCC3=O)s2)CC1)N1CCCCCC1`, the Ratio IC50 in assay [1] turned out to be 342. The IC50 on Acetylcholinesterase is 1000 nM. For `Cc1ccc(OCC(=O)Nc2ccc(CN3CCCCC3)cc2)c(C)c1`, the IC50 against Acetylcholinesterase amounted to 1000 nM. The same measure, in the same setting: then `COc1ccc(Br)cc1C(=O)Nc1ccc(CN2CCCCC2)cc1`, with 1000 nM. `CCOC(=O)c1c(-c2ccc(OC)c(OC)c2)csc1NC(=O)CCN1CCC(C)CC1` came in with an IC50 against Acetylcholinesterase of 3280 nM. The same compound came in with an inhibition in assay [2] of less than 10%. As for `CCc1nn(CC(=O)NCCCN2C[C@H](C)C[C@@H](C)C2)c(=O)c2cc3sc(C)cc3n12`, the Ratio IC50 in assay [1] turned out to be 698. Also, the IC50 against Acetylcholinesterase stood at 2000 nM. `CCOC(=O)c1c(NC(=O)CCN2CCC(C)CC2)sc2c1C[C@@H](C)CC2` displayed an IC50 at Acetylcholinesterase of 5990 nM. Also, the inhibition in assay [2] is less than 10%. `CCc1nc2sc3c(NCCN(C)C)ncnc3c2c2c1CCCC2` yielded an IC50 on Acetylcholinesterase of 1000 nM. On the same count and under the same terms, then `CCN(CC)c1ccc(NC(=O)c2nc3nc(C)cc(C(F)F)n3n2)cc1`, with 1000 nM.

For the origin of these results see ChEMBL document CHEMBL1667857, “Discovery of dual binding site acetylcholinesterase inhibitors identified by pharmacophore modeling and sequential virtual screening techniques” (Bioorg Med Chem Lett, 2011).
